Assay results: patent US20090170773A1, “NOVEL USE OF G-PROTEIN-CONJUGATED RECEPTOR AND LIGAND THEREOF” (RIKEN, priority 2006, published 2009)

Legend:
RAIG2 = molecular target: T1, RAIG2 (Homo sapiens, UniProt Q9NZH0); assay: Insulin secretion in MIN6 cells having RAIG2 expressed forcibly (ELISA); type: cell-based, mouse; conditions: 0.6 mM 1,5-AG added to 2.8 mM glucose, FIG. 2a
T1 construct: expressed in transfected cells; host or cells: mouse insulinoma MIN6 cells, transient transfection with pIRES2-EGFP (CLONTECH) vector
T1 sequence (Q9NZH0 29-403): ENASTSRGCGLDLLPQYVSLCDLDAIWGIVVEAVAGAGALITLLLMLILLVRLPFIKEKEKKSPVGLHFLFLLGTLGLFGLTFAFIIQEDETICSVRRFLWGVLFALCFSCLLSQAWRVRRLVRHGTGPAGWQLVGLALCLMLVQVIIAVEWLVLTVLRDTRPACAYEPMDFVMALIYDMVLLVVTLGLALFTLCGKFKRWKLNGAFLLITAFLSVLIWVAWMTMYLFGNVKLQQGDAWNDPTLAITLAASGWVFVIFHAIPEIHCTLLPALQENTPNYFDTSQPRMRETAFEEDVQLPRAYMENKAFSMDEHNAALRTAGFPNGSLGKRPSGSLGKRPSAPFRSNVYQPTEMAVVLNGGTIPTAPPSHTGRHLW
Method: (§1) Mouse insulinoma MIN6 cells (supplied by Dr. Junichi Miyazaki at the Division of Stem Cell Regulation Research, Department of Molecular Therapeutics, G6 Division of Pathophysiology and Therapeutics, Osaka University Graduate School of Medicine) were cultured in a 24-well plate containing a DMEM comprising 15% fetal calf serum (inactivated by treatment at 56° C. for 30 minutes), 5 μl/l β-mercaptoethanol and 4.5 g/l glucose, in an atmosphere of 5% CO2/95% air, at 37° C. and low density. cDNAs of RAIG2 and RAIG3 were obtained from a human brain or liver cDNA library by a conventional method of PCR. This was inserted into pIRES2-EGFP (CLONTECH). After 24 hours, the above-described cells were transfected with an expression vector containing the RAIG2 or RAIG3 cDNA. The transfection was performed using Lipofectamin 2000 (Invitrogen), as directed in the manufacturer's manual. After 48 hours of further cultivation, the cells were retained in a KRBB solution [129 mM NaCl, 4.8 mM KCl, 1.2 mM MgSO4, 1.2 mM KH2PO4, 4.8 mM NaHCO3, 10 mM HEPES, 2.5 mM CaCl2, 0.2% bovine serum albumin (pH adjusted to 7.4)] containing 2.8 mM glucose at 37° C. for 15 minutes, and then washed. […] Each 10 μl portion of the culture supernatant was taken, and the insulin content was measured by ELISA.

RAIG3 = molecular target: T2, RAIG3 (Homo sapiens, UniProt Q9NQ84); assay: Insulin secretion in MIN6 cells having RAIG3 expressed forcibly (ELISA); type: cell-based; conditions: 0.6 mM 1,5-AG added to 2.8 mM glucose, FIG. 2b
T2 construct: expressed in transfected cells; host or cells: mouse insulinoma MIN6 cells, transient transfection with pIRES2-EGFP (CLONTECH) vector
T2 sequence (Q9NQ84 1-453 isoform Q9NQ84-2): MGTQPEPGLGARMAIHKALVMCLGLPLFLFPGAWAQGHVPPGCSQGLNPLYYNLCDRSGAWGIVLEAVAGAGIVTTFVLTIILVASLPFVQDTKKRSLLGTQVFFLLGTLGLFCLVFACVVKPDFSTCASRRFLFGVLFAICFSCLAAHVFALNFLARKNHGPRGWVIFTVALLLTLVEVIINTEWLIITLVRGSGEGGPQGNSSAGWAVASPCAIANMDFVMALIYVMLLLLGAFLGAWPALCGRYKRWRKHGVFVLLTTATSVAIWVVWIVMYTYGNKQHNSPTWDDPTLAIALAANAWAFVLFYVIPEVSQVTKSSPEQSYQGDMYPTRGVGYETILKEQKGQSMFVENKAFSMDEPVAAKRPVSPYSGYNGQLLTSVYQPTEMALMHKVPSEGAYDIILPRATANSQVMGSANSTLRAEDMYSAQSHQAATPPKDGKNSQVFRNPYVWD
Method: as §1

For `OC[C@H]1OC[C@H](O)[C@@H](O)[C@@H]1O` [1,5-AG, 1,5-anhydroglucitol], the insulin release (RAIG2) was “insulin release equivalent to that with 20 mM glucose” and the insulin release (RAIG3) was “insulin release equivalent to that with 20 mM glucose”.
